The text below walks through data of US12391972B2, “Capillary-based system for accelerated antimicrobial susceptibility testing” (Cornell University, priority 2019, dated 2025).

Bounds are passed on as bounds.

Common to all, as to assay type: cell-based, Escherichia coli
For experiment [1], the system named is E. coli clinical strain 7426. Kind of experiment: clinical gradient diffusion (E-test, bioMérieux). The conditions noted are these: gradient diffusion overnight. As for the experimental part:
(§1) Following testing of the QC strains, the cAST platform was used to test two E. coli clinical isolates. Following the same protocol used to test the QC strains, the clinical isolates were tested with ten two-fold dilution gentamicin concentrations spanning 0.5 μg/mL to 256 μg/mL. Testing was conducted blind and results were subsequently compared with clinical results generated using gradient diffusion (E-test, bioMérieux).

Experiment [2] concerns E. coli clinical strain 7704. Kind of experiment: clinical gradient diffusion (E-test, bioMérieux). The note with it: gradient diffusion overnight. Here is the method:
as §1

The test system of experiment [3] is E. coli clinical strain 7426. Kind of experiment: cAST platform antimicrobial susceptibility testing (resazurin, capillary format). As for the experimental part:
(§2) The disclosure includes use of steel capillary tubes of size 50 mm×1.59 mm×0.76 mm (L×O.D.×I.D.) to hold the samples. Alternatively, glass capillary tubes (Drummond Scientific) of similar size can also be used. However, in the case of glass, the ends of the tubes are coated with paint or a similar substance to prevent excess light from the LEDs leaking into the fiber-optic detector. During sample loading, 4 μL liquid culture droplets were individually pipetted onto a clean substrate and then loaded into the tubes via capillary action. The capillary tubes used as conduits were sterilized prior to loading through autoclaving. Following loading, tubes were inserted into the sample holder in a configuration that allows light from the LEDs to pass through the sample and into the fiber-optic detector. Since the volume capacity of the capillary tubes was higher than the sample volume of 4 μL, the tubes were loaded with the fluid-filled side near the light-source as this configuration was determined to yield higher signal-to-noise ratios. This approach to sample loading is encompassed by the disclosure. During AST, the cAST platform was placed inside a benchtop incubator (Corning) set to 37° C. in ambient air. A small portable humidifier was also placed inside the incubator (80-85% relative humidity) to minimize sample drying during incubation. Thus, in embodiments, a system of the disclosure may include a humidifying device or composition to act as […]. Every 30 min, spectral intensity measurements were automatically taken for each sample and data were transferred and stored on a computer for processing using OceanView (Ocean Optics).
(§3) The cAST platform was initially used to test five different quality control (QC) strains: Escherichia coli ATCC 25922, Enterobacter cloacae ATCC 13047, Acinetobacter baumannii ATCC BAA-747, Pseudomonas aeruginosa ATCC 27853, and Escherichia coli K12 ER2267 (kanamycin resistant). To prepare inocula for AST, strains were first streaked on Mueller-Hinton II agar plates (Becton, Dickinson and Company) and incubated overnight at 37° C. in ambient air. For the kanamycin resistant E. coli K12 strain, the agar was supplemented with kanamycin (MilliporeSigma) at a final concentration of 50 μg/mL. Liquid cultures were then prepared by inoculating single colonies into CAMHB, followed by overnight incubation at 37° C. in ambient air. […] Using a spectrophotometer (V-1200, VWR), the OD625nm absorbance corresponding to a 0.5 McFarland standard was verified to be in the range of 0.08-0.13^21. […] Resazurin is a redox indicator that is reduced by metabolically active cells into resorufin, leading to significant colorimetric and fluorescent changes in the culture media which can be measured to gauge bacterial growth^20. […]

In experiment [4] the test system is E. coli clinical strain 7704. The description is as above. As for the experimental part:
as §2, §3

Setting [5] is: cAST in categorical agreement with gradient diffusion.

Consider gentamicin, for which the figures for the MIC in experiment [1] and in experiment [2] were at least 256 µg/mL and 1.5 µg/mL, respectively. Moreover, the “predicted MIC” value is 128 µg/mL in experiment [3] (cAST at 6 h) and 1 µg/mL in experiment [4] (cAST at 6 h). The susceptibility category result in experiment [3] (setting [5]) was “resistant (resistant (≥16 μg/mL))”; in experiment [4] (setting [5]), “susceptible (susceptible (≤4 μg/mL))”.
